Data: patent publication US20220211876A1, “LESION DETECTION METHOD” (MIE UNIVERSITY, priority 2019, published 2022)
Entries after “also recorded” stand apart in the source; their conditions may differ.

Tests used:
[1] = Fluorescent color by laser irradiation; format: physicochemical
Text: Regarding staining an organ tissue, the object in the organ to be visualized differs depending on the staining agent used. For example, curcumin and Red #3 are suitable for staining epithelial and glandular cells, as well as cancerous cells derived from them. On the other hand, Red #106 is suitable for staining connective tissue and capillaries. By laser irradiation, curcumin gives a green fluorescent color, while Red #3 and Red #106 give a red fluorescent color. Therefore, double staining with curcumin and Red #106 makes it easier to identify structure of cells in tissue by superimposing stained images. Accordingly, micro cancer tissue with diameter of about 1 mm and invasive cancer cell groups can be detected.
(§1) A multiphoton laser microscope of FVMPE-RS (Olympus) was used with the irradiation wavelength of 800 nm, wherein the laser irradiation was performed at 5.8˜48.2% of its full power output. A confocal laser microscope of FV1000 (Olympus) was used with the irradiation wavelength of 488 nm and 594 nm, wherein the laser irradiation at 488 nm was performed at 15˜29.4% of its full power output, and the laser irradiation at 594 nm was performed at 13˜13.5% of its full power output.

[2] = tested on: RAS; experiment: Staining of cells that overexpress a cancer-related gene product (RAS); format: cell-based
Text: For the visualization of expression patterns of cancer-related genes in living cells, the inventors stained a cancer-related gene product to chromatic color using staining agents containing edible dyes and photographed. An edible dye is a natural or artificial dye which has been permitted to be administered to human (For example, a dye for food coloring, or a dye that can be taken as supplements). Specifically, a staining agent containing curcumins (C21H20O6) can be used to selectively stain a STAT3-based cancer-related gene product. In addition, a staining agent containing Red #3 (erythrosine) can be used to selectively stain the expression pattern of ras-based cancer-related gene. More specifically, as a staining agent containing curcumins, a solution containing 1% by weight of curcumin was prepared. As a staining agent containing Red #3, a solution containing 1% by weight of […] was prepared. As a staining agent containing curcumins, a curcumin solution 5˜100-fold diluted from its stock solution (for example, a liquid containing 5% curcumin solution, 45% glycerol, and 50% ethanol) with physiological saline can be used. […] Accordingly, the nucleus surrounded by the cytoplasm is clearly visualized, making it clearer to be analyzed.

[3] = tested on: large intestine of a mouse (normal mucosal tissue); experiment: Vital staining of normal mouse large intestine, imaging with multiphoton or confocal laser microscope; format: in vivo; details: for structures stained in double staining: curcumin and Red #106 from lumen side, FIG. 4
Protocol: (§2) 100 mg of curcumin (Tokyo Kasei, cat. #C2302, purity 97.0%) was suspended in 5 mL of ethanol, and further diluted 10-fold with ethanol. It was mixed with the same amount of glycerin, and further diluted 10-fold with glycerin. The mixture was mixed with the same amount of purified water to obtain a staining solution of curcumin. Regarding Red #106, its staining solution is obtained by dissolving the powder in saline to achieve a concentration of 1 mg/mL.
(§3) C57BL/6N mice purchased from Japan SLC, Inc. were used in the tests. All tests were performed on male, 8-week-old mice weighing 20˜25 grams.
as §1

[4] = tested on: Auerbach's plexus in large intestine; experiment: Curcumin staining of freshly resected colon of a patient with Hirschsprung-like disease, multiphoton laser microscope; set-up: species or system human
Protocol: In an embodiment of the present invention, curcumin was administered to a freshly resected colon from a patient with Hirschsprung-like disease, and then a multiphoton laser microscope was used to visualize Auerbach's plexus. […] (FIG. 39). Therefore, intraoperative rapid diagnosis by a multiphoton laser microscope of freshly resected large intestine of a patient with Hirschsprung-like disease can be performed and appropriate surgical resection sites can be confirmed.

[5] = tested on: large intestine (cancer tumor site) of a colon cancer mouse; experiment: Vital staining of the cancer tumor site of a colon cancer mouse, laser microscope imaging; format: in vivo
Protocol: as §2, §3
Model mice with colon cancer were prepared by intraperitoneally administering 10 mg/kg of azoxymethane (AOM) dissolved in saline 4 times at weekly intervals to the C57BL/6N mice.
as §1

[6] = tested on: optic nerve and optic ganglion cells of retina; experiment: Vital staining of retina by intraperitoneal administration, laser microscope; format: in vivo, mouse; details: curcumin vital staining
Text: FIG. 38 is a diagram of visualization of optic nerves and the optic ganglion cells of retina in vivo after vital staining by intraperitoneal administration of sulforhodamine 101 and curcumin to a mouse. (A) is a diagram of visualization of blood vessels fluorescently labeled with sulforhodamine 101 and a bundle of optic nerve fluorescence-labeled with curcumin. […] In an embodiment of the present invention, the nerve cell layer of retina can be visualized by vital staining with curcumin (FIG. 37). According to FIG. 37, it can be seen that in the layer structure of retina, the cell layer of optic ganglion, inner plexiform layer, bipolar cell layer, outer plexiform layer, and outer nuclear layer can be identified. It can be seen that the blood vessel travel and the optic nerve bundle in retina can be visualized at the same time by double staining with blood vessel staining dye (sulforhodamine 101) and curcumin (FIG. 38A). […] Accordingly, the present invention is very useful for detecting retinal diseases.

[7] = tested on: nerve fibers (myelin sheath); experiment: Vital staining of nerve fibers, multiphoton laser microscope; format: in vivo, mouse; details: intraperitoneal administration, FIG. 25
Text: FIG. 25 is a diagram showing, at high magnification, examples of visualization with a laser multiphoton microscope of olfactory nerve fibers after vital staining by intraperitoneal administration of curcumin to a mouse.

[8] = tested on: taste bud; experiment: Vital staining by coating onto tongue mucosa, laser microscope; format: in vivo, mouse; details: coating on tongue mucosa
Text: FIG. 20 is a diagram showing, at high magnification, an example of visualization with a multiphoton laser microscope of a taste bud, which is a taste sensory device, after vital staining by coating curcumin onto tongue mucosa of a mouse. FIG. 20 to FIG. 22 are diagrams in which a taste bud, a taste sensory device, is visualized by a laser microscope after vital staining by coating curcumin on mouse tongue mucosa. FIG. 20 and FIG. 21 further show hematoxylin-eosin staining images of taste buds. The nuclei of sensory neuronal cells are not stained with curcumin, so that they are recognized as black negative images. By coating curcumin on oral mucosa, the neuronal cells of a taste bud, which is a taste sensory device, can be visualized. Accordingly, taste disorders can be examined in otolaryngologic field.

[9] = target: T1, STAT3 (Homo sapiens, UniProt P40763); experiment: Staining of cells that overexpress a cancer-related gene product (STAT3); format: cell-based
T1 construct: endogenous in cells
T1 sequence (P40763 whole entry, species assumed): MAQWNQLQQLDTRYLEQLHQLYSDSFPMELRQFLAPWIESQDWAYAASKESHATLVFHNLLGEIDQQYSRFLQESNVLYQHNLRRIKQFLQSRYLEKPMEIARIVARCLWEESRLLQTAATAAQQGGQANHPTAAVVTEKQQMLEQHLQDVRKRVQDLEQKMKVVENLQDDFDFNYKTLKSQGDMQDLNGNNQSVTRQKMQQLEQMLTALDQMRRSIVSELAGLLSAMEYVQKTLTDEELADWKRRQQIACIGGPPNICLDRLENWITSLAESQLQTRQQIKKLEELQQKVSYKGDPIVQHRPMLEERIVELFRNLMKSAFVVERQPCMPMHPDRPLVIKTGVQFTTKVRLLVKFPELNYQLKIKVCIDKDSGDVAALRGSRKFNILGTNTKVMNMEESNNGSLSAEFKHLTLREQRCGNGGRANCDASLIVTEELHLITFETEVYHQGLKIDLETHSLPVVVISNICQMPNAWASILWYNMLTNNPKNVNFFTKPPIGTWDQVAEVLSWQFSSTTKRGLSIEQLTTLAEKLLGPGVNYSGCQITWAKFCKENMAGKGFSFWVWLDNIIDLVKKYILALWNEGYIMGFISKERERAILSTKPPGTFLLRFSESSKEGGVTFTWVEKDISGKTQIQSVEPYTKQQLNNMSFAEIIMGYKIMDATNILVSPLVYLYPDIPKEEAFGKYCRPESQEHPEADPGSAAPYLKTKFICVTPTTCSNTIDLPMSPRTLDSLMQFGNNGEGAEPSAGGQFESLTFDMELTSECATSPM
Text: For the visualization of expression patterns of cancer-related genes in living cells, the inventors stained a cancer-related gene product to chromatic color using staining agents containing edible dyes and photographed. An edible dye is a natural or artificial dye which has been permitted to be administered to human (For example, a dye for food coloring, or a dye that can be taken as supplements).
Specifically, a staining agent containing curcumins (C21H20O6) can be used to selectively stain a STAT3-based cancer-related gene product. In addition, a staining agent containing Red #3 (erythrosine) can be used to selectively stain the expression pattern of ras-based cancer-related gene.
More specifically, as a staining agent containing curcumins, a solution containing 1% by weight of curcumin was prepared. As a staining agent containing Red #3, a solution containing 1% by weight of phloxine was prepared. […]
When a staining agent containing curcumins is used, the expression of a STAT3-based cancer-related gene product in living cells can be visualized by staining. […] Accordingly, the nucleus surrounded by the cytoplasm is clearly visualized, making it clearer to be analyzed.

[10] = tested on: olfactory receptor neurons; experiment: Vital staining by coating onto nasal mucosa, laser microscope; format: in vivo, mouse; details: coating on nasal mucosa
Text: FIG. 26 is a diagram showing, at high magnification, examples of visualization with a multiphoton laser microscope of olfactory receptor neurons, which are odor sensory cells, after vital staining by coating curcumin onto nasal mucosa of a mouse. […] Since a nucleus is not stained, it is viewed as a black negative image. By coating curcumin on nasal mucosa, olfactory receptor neuronal cells, which are odor sensing cells, can be visualized. Accordingly, olfactory disorders can be examined.

[11] = normal large intestine, five-layer structure
[12] = stained and photographed from luminal side
[13] = isolated large intestine, stained from serosa side
[14] = normal mucosal tissue of large intestine, FIG. 3

## O=C1OC2(c3ccccc31)c1cc(I)c(O)c(I)c1Oc1c2cc(I)c(O)c1I [Red #3, erythrosine]
[1]
  fluorescent color: red
[2]
  staining of cells that overexpress RAS: can stain

## CCN(CC)c1ccc2c(-c3ccc(S(=O)(=O)[O-])cc3S(=O)(=O)[O-])c3ccc(=[N+](CC)CC)cc-3oc2c1.[Na+] [Red #106]
[1]
  fluorescent color: red
[3]; isolated large intestine
  structures stained in double staining: connective tissue, capillaries and cell membranes of epithelial and glandular cells
[3]; [11]
  staining of the network of capillaries surrounding the glandular structures of epithelial and glandular layers (1): strongly positively
  staining of the smooth muscle in muscle layer (4): slightly positively; also recorded: strongly stained; also recorded: strongly positively
  staining of the smooth muscle in muscularis mucosae (2): slightly positively; also recorded: moderately positively
  staining of the wall of a thick blood vessel inside muscle layer: strongly positively; also recorded: strongly stained

## COc1cc(/C=C/C(=O)CC(=O)/C=C/c2ccc(O)c(OC)c2)ccc1O [curcumin]
[1]
  fluorescent color: green
[4]
  identification of the normal part and malformation part of Auerbach's plexus: clearly identified
[5]; cancer cells versus surrounding tissue / normal cells
  staining of cancer cells relative to surrounding or normal tissue: darker than surrounding tissue
[5]; [12]
  staining of cytoplasm of cancer cells: severely positively
  staining of nuclei of cancer cells: negatively
[3]; isolated large intestine
  structures stained in double staining: cytoplasm of epithelial and glandular cells
[3]; [13]
  staining of nerve fibers of Auerbach's plexus: moderately
  staining of perikaryon of Auerbach's plexus: strongly
[3]; [11]
  staining of Auerbach's plexus inside muscle layer: strongly positively
  staining of epithelial and glandular cells in epithelial and glandular layers (1): strongly positively
  staining of the smooth muscle in muscle layer (4): slightly positively
  staining of the smooth muscle in muscularis mucosae (2): moderately positively; also recorded: severely positively
[3]; [14]
  staining of the cytoplasm of epithelial cells and gland cells: stained
  staining of the nucleus of epithelial cells and gland cells: not stained
[3]; stained from serosa side
  staining of the nucleus in perikaryon of Meissner's plexus: does not stain the nucleus
[3]; stained from serosa side, high magnification
  staining of the nucleus in perikaryon of Auerbach's plexus: does not stain the nucleus
[6]
  signal of the cytoplasm of optic nerve and small/large ganglion cells: positive signal
  signal of the nucleus of optic nerve and small/large ganglion cells: negative signal
[7]
  staining of myelin sheath: can stain myelin sheath
[8]
  staining of nuclei of sensory neuronal cells of taste bud: not stained
[9]
  staining of cells that overexpress STAT3: can stain cells that overexpress STAT3
[10]
  staining of cytoplasm of olfactory receptor neurons and cilia having odor receptors: stained positively
  staining of nucleus of olfactory receptor neurons: not stained
